According to US7122530B2, “24-hydroxyvitamin D, analogs and uses thereof” (Genzyme Corporation, priority 1998, dated 2006):
Read-outs that look alike come from different tables or passages of the source.

Assays:
[1] = Production of 1α,24(S)-(OH)2-25-ene-D2 in osteoporotic women (blood metabolite, HPLC and radioreceptor assay); format: in vivo, human; conditions: 25 μg/day for one week; one day following the last dose
Method: Human female subjects, who have been diagnosed with osteoporosis, are given daily doses of 25 μg/day 24-OH-25-ene-D2 for one week. Blood is collected and analyzed for the metabolite 1α,24(S)-(OH)2-25-ene-D2. Lipid is extracted from the blood, and the metabolite is purified by HPLC using standard methods and quantified with the radioreceptor assay produced by Incstar (Stillwater, Minn.).

[2] = In vivo generation of 1α,24-(OH)2-D2 in vitamin D-deficient rats (plasma metabolites by HPLC)
Method: 24-OH-D2 was administered (either oral or intraperitoneal supplementation) to vitamin D-deficient rats. Lipid extracts of the plasma were prepared and the metabolites purified by the method of Horst et al. (Horst, R. L., Koszewski, N. J. and Reinhardt, T. A., Biochem., 29:578–82 (1990) and incorporated herein by reference) described below for synthesizing standard biological 1α,24-(OH)2D2.

[3] = test system: patients (Japan; senile osteoporosis); conditions: cited from earlier work
[4] = test system: subjects with secondary hyperparathyroidism; experiment: Twelve-month placebo-controlled trial of 24-(OH)-D4 in elderly subjects with secondary hyperparathyroidism; format: in vivo, human; conditions: 15 μg/day, twelve months
Method: (§1) A twelve-month double-blind placebo-controlled clinical trial is conducted with forty subjects with secondary hyperparathyroidism. The selected subjects have ages between 60 and 100 years and have a history of secondary hyperparathyroidism. Subjects also have femoral neck osteopenia (femoral neck bone mineral density of ≦0.70 g/cm^2).
(§2) All subjects enter a six-week control period after which the subjects are randomized into two treatment groups: one group receives a constant dosage of 15 μg/day 24-(OH)-D4, and the other group receives a matching placebo. Both groups maintain a normal intake of dietary calcium without the use of calcium supplements. Efficacy is evaluated by pre- and post-treatment comparisons of the two patient groups with regard to (a) intact PTH (iPTH); (b) radial, femoral and spinal bone mineral density; and (c) bone-specific urine markers (e.g., pyridinium crosslinks). Safety is evaluated by (a) serium calcium and phosphorus, and (b) urine calcium and phosphorus.

[5] = Blood level of 1α,24-(OH)2-D2 in vitamin D-deficient rats given 24-OH-previtamin D2; format: in vivo; conditions: 0.25 μg/kg oral; four hours after administration
Method: Male weanling rats are fed a diet deficient in vitamin D and with normal calcium (0.47%). After a period of four weeks has elapsed, the rats are divided into two groups, and orally administered either 24-OH-previtamin D2 (0.25 μg/kg) in a vehicle such as lactose or the vehicle (control) alone.

[6] = test system: postmenopausal osteoporotic outpatients; experiment: Clinical study of osteoporosis treatment with 24-OH-preD2; format: in vivo, human; conditions: oral, above 5.0 μg/day, 24 months
Method: A clinical study is conducted with postmenopausal osteoporotic outpatients having ages between 55 and 75 years. The study involves up to 120 patients randomly divided into three treatment groups, and continues for 24 months. Two of the treatment groups receive constant dosages of orally administered 24-OH-preD2 (u.i.d.; two different dose levels above 5.0 μg/day) and the other group receives a matching placebo. All patients maintain a normal intake of dietary calcium (500 to 800 mg/day) and refrain from using calcium supplements. Efficacy is evaluated by pretreatment and posttreatment comparisons of the patient groups with regard to (a) total body, radial, femoral, and/or spinal bone mineral density as determined by x-ray absorptiometry (DEXA), (b) bone biopsies of the iliac crest, and (c) determinations of serum osteocalcin. Safety is evaluated by comparisons of urinary hydroxyproline excretion, serum and urine calcium levels, creatinine clearance, blood urea nitrogen, and other routine determinations.

[7] = test system: patients with advanced androgen-independent prostate cancer; experiment: Study of Example 10 repeated with 24-OH-preD2 in prostate cancer; format: in vivo, human; conditions: for progression of metastatic disease (CAT scans, X-rays and bone scans): phase two, after two years
Text: Patients with advanced androgen-independent prostate cancer participate in an open-label study of 24-(OH)-D2. […] On admission to the study, patients begin a course of therapy with oral 24-(OH)-D2 lasting 26 weeks, while discontinuing any previous use of calcium supplements, vitamin D supplements, and vitamin D hormone replacement therapies. During treatment, the patients are monitored at regular intervals for: (1) hypercalcemia, hyperphosphatemia, hypercalciuria, hyperphosphaturia and other toxicity; (2) evidence of changes in the progression of metastatic disease; and (3) compliance with the prescribed test drug dosage.
The study is conducted in two phases. During the first phase, the maximal tolerated dosage (MTD) of daily oral 24-(OH)D2 is determined by administering progressively higher dosages to successive groups of patients. All doses are administered in the morning before breakfast. The first group of patients is treated with 25.0 μg of 24-(OH)D2. Subsequent groups of patients are treated with 50.0, 75.0 and 100.0 μg/day. Dosing is continued uninterrupted for the duration of the study unless serum calcium exceeds 11.6 mg/dL, or other toxicity of grade 3 or 4 is observed, in which case dosing is held in abeyance until resolution of the observed toxic effect(s) and then resumed at a level which has been decreased by 10.0 μg.
The study of Example 10 is repeated for the vitamin D compound, 24-OH-preD2.

[8] = test system: subjects with secondary hyperparathyroidism; experiment: Twelve-month placebo-controlled trial of 24-OH-preD2 in elderly subjects with secondary hyperparathyroidism; format: in vivo, human; conditions: 15 μg/day, twelve months
Method: as §1
as §2, with “24-OH-preD2,” for “24-(OH)-D4,”

[9] = test system: patients with primary hyperparathyroidism; experiment: Clinical trial of 24-OH-preD2 for primary hyperparathyroidism; format: in vivo, human
Method: Twenty renal patients are enrolled in a clinical trial to study primary hyperparathyroidism. The patients show baseline iPTH levels greater than 200 pg/mL. An initial dose of 24-OH-preD2 (2–4 μg/day) is increased (maximum, 10 μg/day) or decreased as necessary to attain and maintain iPTH in the normal range. After 11–12 weeks of treatment, the iPTH levels of the patients decrease to below 100 pg/mL, and in many cases to below 60 pg/mL.

[10] = test system: postmenopausal osteoporotic out-patients; experiment: Clinical study of prevention of bone mass loss with 24(S)-OH-25-ene-D2; format: in vivo, human; conditions: at or above 5.0 μg/day, 24 to 36 months
Method: A clinical study is conducted with postmenopausal osteoporotic out-patients having ages between 55 and 75 years. The study involves up to 120 patients randomly divided into three treatment groups and continues for 24 to 36 months. Two of the treatment groups receive constant dosages of 24(S)-OH-25-ene-D2 (u.i.d.; two different dose levels at or above 5.0 μg/day) and the other group receives a matching placebo. All patients maintain a normal intake of dietary calcium (500 to 800 mg/day) and refrain from using calcium supplements. Efficacy is evaluated by pre- and post-treatment comparisons of the patient groups with regard to (a) total body calcium retention, and (b) radial and spinal bone mineral density as determined by dual-photon absorptiometry (DPA) or dual-energy x-ray absorptiometry (DEXA). Safety is evaluated by comparisons of urinary hydroxyproline excretion, serum and urine calcium levels, creatinine clearance, blood urea nitrogen, and other routine determinations.

postmenopausal women = conditions: cited from earlier work
[11] = test system: dermatitis (contact and ectopic) patients; experiment: Double blind study of oral 24(S)-OH-preD2 formulation in dermatitis (contact and ectopic); format: in vivo, human; conditions: daily oral 10.0 to 20.0 μg, four to six weeks
Method: An oral dosage formulation containing 24(S)-OH-preD2 is evaluated in a double blind study for therapeutic efficacy of the formulation in the treatment of dermatitis (contact and ectopic). The formulation evaluated contains 10.0 to 20.0 μg of 24(S)-OH-preD2. […] The patients are treated in an outpatient clinic and are divided into an experimental and control population. They are instructed to take the medication once a day, in the morning before breakfast.
In each patient (experimental and control) an area of the skin containing a lesion is selected which is ordinarily covered by clothing, and the patients are instructed not to expose the skin area selected for study to sunlight. The area of the lesion is estimated and recorded, and the lesion(s) is photographed. Relevant details of the photographic procedure are recorded so as to be reproduced when the lesions are next photographed (distance, aperture, angle, background, etc.).
Evaluations of erythema, scaling, and thickness are conducted at weekly intervals by a physician. The final evaluation is usually carried out at the end of four to six weeks of treatment.

**Q.** For “24-hydroxy-25-ene-vitamin D2 [24-OH-25-ene-D2]”, which “level of 1α,24(S)-(OH)2-25-ene-D2 in the blood” value [1] is on record?
**A.** The value was “significant level”.

**Q.** For `C=C1CC[C@H](O)C/C1=C/C=C1\CCC[C@]2(C)[C@@H]([C@H](C)/C=C/[C@H](C)C(C)C)CC[C@@H]12` [vitamin D2], which “metabolite isolated from plasma lipid extracts versus standard 1α,24-(OH)2D2” value ([2]; vitamin D-deficient rats, oral or intraperitoneal supplementation, HPLC) is on record?
**A.** The value was “co-migrated on HPLC with the standard 1α,24-(OH)2D2”.

**Q.** Which efficacy ([3]; 1 μg/day, Japan, low calcium intake) does the source give for `C=C1/C(=C\C=C2/CCC[C@]3(C)[C@@H]([C@H](C)CCCC(C)C)CC[C@@H]23)C[C@@H](O)C[C@@H]1O` [1α-hydroxyvitamin D3] here?
**A.** The efficacy was “efficacy is found”.

**Q.** And the “patients in whom toxicity occurs” value ([3]; 1 μg/day)?
**A.** Its value is “approximately 20%”.

**Q.** And the “patients in whom toxicity occurs” value ([3]; 2 μg/day)?
**A.** Its value is “approximately 67%”.

**Q.** With `C=C1CC[C@H](O)C/C1=C/C=C1\CCC[C@]2(C)[C@@H]([C@H](C)CCCC(C)C)CC[C@@H]12` [vitamin D3] as the compound, how does the “detectable 24-OH-D3 in plasma” value ([2]; comparable vitamin D-deficient rats) read?
**A.** The value was “no detectable 24-OH-D3”.

**Q.** What does the source list for `C=C1CC[C@H](O)C/C1=C/C=C1\CCC[C@]2(C)[C@@H]([C@H](C)CCC(C)(O)C(C)C)CC[C@@H]12` (some centres unmarked) [24-(OH)-D4, 24-hydroxyvitamin D4]?
**A.** bone specific urine markers [4]: significantly decreases; incidence of hypercalcemia [4]: insignificant incidence; intact PTH (iPTH) [4]: significantly decreases; radial and spinal bone densities relative to baseline values [4]: stable; serum calcium levels [4]: normal serum calcium levels

**Q.** Which “blood level of 1α,24-(OH)2-D2 versus control animals” value [5] does the source give for 24-hydroxyprevitamin D2 [24-OH-preD2] here?
**A.** Its value is “significantly elevated”.

**Q.** And the “bone biopsies (bone formation)” value [6]?
**A.** Its value is “stimulates normal bone formation”.

**Q.** And the “incidence of hypercalcemia or hypercalciuria, or any other metabolic disturbance” value [6]?
**A.** Its value is “insignificant incidence”.

**Q.** And the serum osteocalcin [6]?
**A.** The serum osteocalcin was “significant elevations”.

**Q.** What about the “total body, radial, femoral, and/or spinal bone densities relative to placebo” value [6] of the same compound?
**A.** The value was “significantly higher”.

**Q.** What about the “progression of metastatic disease (CAT scans, X-rays and bone scans)” value ([7]; higher dosage) of the same compound?
**A.** Its value is “stable disease and partial or complete remission in many patients”.

**Q.** What about the “progression of metastatic disease (CAT scans, X-rays and bone scans)” value ([7]; lower dosage) of the same compound?
**A.** The value was “stable disease or partial remission in many patients”.

**Q.** What about the “bone pain associated with metastatic disease” value ([7]; treated with the MTD for at least six months) of the same compound?
**A.** The value was “significantly diminished”.

**Q.** What about the “bone specific urine markers” value [8] of the same compound?
**A.** The value was “significantly decreases”.

**Q.** And the incidence of hypercalcemia [8]?
**A.** Its incidence of hypercalcemia is “insignificant incidence”.

**Q.** And the “intact PTH (iPTH)” value [8]?
**A.** Its value is “significantly decreases”.

**Q.** And the “radial and spinal bone densities relative to baseline values” [8]?
**A.** The value was “stable”.

**Q.** What about the serum calcium levels [8] of the same compound?
**A.** Its serum calcium levels is “normal serum calcium levels”.

**Q.** And the “iPTH levels of the patients” value ([9]; after 11–12 weeks, baseline greater than 200 pg/mL, 2–4 μg/day, titrated)?
**A.** Its value is “below 100 pg/mL”.

**Q.** And the “iPTH levels, in many cases” value ([9]; after 11–12 weeks, in many cases)?
**A.** Its value is “below 60 pg/mL”.

**Q.** What about the episodes of hypercalcemia ([9]; during the study) of the same compound?
**A.** Its episodes of hypercalcemia is “few episodes of hypercalcemia”.

**Q.** What does the source list for `C=C1CC[C@H](O)C/C1=C/C=C1\CCC[C@]2(C)[C@@H]([C@H](C)/C=C/[C@](C)(O)C(=C)C)CC[C@@H]12` [24(S)-OH-25-ene-D2]?
**A.** incidence of hypercalcemia or hypercalciuria, or any other metabolic disturbance [10]: insignificant incidence; total body calcium, and radial and spinal bone densities relative to placebo [10]: significantly higher

**Q.** For `C=C1/C(=C\C=C2/CCC[C@]3(C)[C@@H]([C@H](C)CCCC(C)(C)O)CC[C@@H]23)C[C@@H](O)C[C@@H]1O` [1α,25-dihydroxyvitamin D3], which “intestinal calcium absorption and calcium balance” value (postmenopausal women; 0.5 μg/day, postmenopausal women) is on record?
**A.** Its value is “improved”.

**Q.** What about the “effects on bone mass or mineral content” value (postmenopausal women; dosage levels below 0.5 μg/day) of the same compound?
**A.** Its value is “no effects are observed”.

**Q.** For “24(S)-hydroxyprevitamin D2 [24(S)-OH-preD2]”, which “degree of erythema, scaling, and thickness versus control patients” value [11] is on record?
**A.** Its value is “significantly reduces”.
